The values that follow come from US9593146B2, “CD44v6-derived peptides for treating metastasizing cancer” (AMCURE GMBH, priority 2012, dated 2017).

One assay deals with HUVECs and HAOECs. The assay can be described thus: Scratch closure assay, EC migration. The class given is cell-based, human. The note with it: 24 hours. The procedure: FIG. 18: CD44v6 is required for EC migration. HUVECs and HAOECs were grown to confluence and a wound was made into the cell monolayer with a sterile pipette tip. After washing the cells were incubated with the antibody against CD44v6, the CD44v6 peptide (human v614mer) or the control peptide as indicated. The ligands HGF, VEGF-A165 or VEGF-A121 were added and migration of the ECs was analysed after 24 hours. The numbers indicate the percentage of free area in the scratch area quantified by the computer program ImageJ.
In this assay the requirement for CD44v6 for cell migration was tested. In a scratch closure assay migration of either vein or artery ECs was tested. These cells were grown to confluence and a scratch was made into the confluent monolayer using a sterile pipette-tip. The cells lining the scratch border started to migrate into this empty space in order to close the gap. In presence of either HGF, VEGF-A165, or VEGF-A121 the cells migrated faster than in absence of the ligands and the scratch was closed within one day.

For another assay, the system named is L3.6pl cells. The assay can be described thus: Human orthotopic model of pancreatic cancer, L3.6pl cells in nude mice. The class given is in vivo.
The next assay deals with 4T1 cells. The assay can be described thus: Syngeneic orthotopic 4T1 mammary carcinoma model in BALB/c mice. The class given is in vivo. The procedure: FIG. 26: Treatment with the v6 14mer reduces growth of the primary tumor and macroscopic metastases formation in the lung. 1×10^6 murine 4T1 cells per mouse were diluted in 50 μl RPMI plus 50 μl Matrigel and injected into the 6th mammary fat pad of 10 female BALB/c mice. One week after the injection, the mice were either injected intraperitoneally with 20 μg of the murine v6 14mer dissolved in 100 μl PBS or with 20 μg of control peptide (rat v6 14mer) dissolved in 100 μl PBS. The injection was performed 3 times per week for two weeks. After 2 weeks the mice were sacrificed and the primary tumors and the lungs were extracted. A: Overall reduction of the tumor volume in the v6 peptide treated group. B: Immunofluorescent staining for the endothelial marker CD34 to monitor vascularization of the primary tumor. Graphic representation of the reduction of the total vessel area. C: The v6 peptides led to a reduction in macroscopic lung metastasis. The black arrows mark examples for metastases. The scale bar corresponds to a size of 1 cm. Statistical evaluation of the average number of lung metastases. Significance was calculated using Student's t test: p*<0.01; **p<0.005. Each group consisted of 5 animals.
The effect of the CD44v6 14mer was tested in a syngeneic mouse model by orthotopic injection of the murine mammary carcinoma cells 4T1. 4T1 cells were originally derived from a spontaneously arising BALB/c mammary tumor. When introduced orthotopically, 4T1 cells grow rapidly at the primary site and form metastases in the lung and the lymph nodes within a period of 3-6 weeks. The tumor growth and metastatic spreading of 4T1 cells in BALB/c mice very closely mimics human breast cancer stage IV.
The 4T1 cells were injected orthotopically into the 6th mammary fat pad. Two groups of 5 animals each with the implanted tumor cells were then used for the experiment. One group was treated with the v6 14mer peptide, one with a control (rat) peptide. The injection of the peptide was performed 3 times per week and planned for three to four weeks but had to be stopped after two weeks as the control group suffered from large tumors.

Where [1] appears, read: 20 μg i.p. three times per week for three weeks, start 7 days after implantation.
[2] abbreviates: murine v6 14mer 20 μg i.p. 3 times per week for two weeks.

In the case of “KEQWFGNRWHEGYR [human 14mer, human CD44v6 14mer peptide]”, in the assay on HUVECs and HAOECs, the “EC migration induced by HGF, VEGF-A165 or VEGF-A121” value was “reduced to basal levels”. For the same sequence, in the assay with L3.6pl cells (10 μg per injection, three times per week for 3 weeks), the “metastatic spreading at 10 μg” value is given as “complete inhibition of metastatic spreading”. In addition, the “tumor angiogenesis (vessel number and vessel size, CD31)” value with L3.6pl cells (20 μg i.p. three times per week for three weeks) is on record as “decreased angiogenesis”. For the same sequence, in the assay on L3.6pl cells (setting [1]), the “Met activation in the tumor (phospho-Met immunofluorescence)” value was “completely repressed Met activation” and the “outgrowth of the primary tumor in the pancreas” value is on record as “strongly repressed”. Further, in the assay with L3.6pl cells (20 μg i.p. three times per week for three weeks, start 7 days after implantation, listed as SEQ ID No.: 6), the “metastasis formation (liver)” value is reported as “capable of inhibiting metastasis”. In addition, the “metastasis formation (liver)” value in the assay with L3.6pl cells (20 μg i.p. three times per week for three weeks, start 7 days after implantation, listed as human-specific peptide) is recorded as “completely inhibited metastasis formation within the liver”. The “reduction of tumor size, ranking (side-by-side comparison)” value in the assay on L3.6pl cells (20 μg per injection three times per week for 3 weeks (FIG. 23A)) is recorded as “strongest reduction of tumor size”. In the assay with L3.6pl cells (20 μg per injection three times per week for 3 weeks (FIG. 23B)), the “variability in the individual tumor size within the group” value is “low variability”. In addition, in the assay with L3.6pl cells (20 μg per injection three times per week for 3 weeks (FIG. 24)), the “metastatic spreading to the liver (side-by-side comparison)” value is reported as “complete inhibition of metastasis”. The “tumor growth compared to the control peptide (side-by-side comparison)” value in the assay on L3.6pl cells (20 μg per injection three times per week for 3 weeks, 5 animals per group) was “significant reduction in tumor growth”. For the same sequence, the “liver metastases at 0.2 and 2 μg” value in the assay with L3.6pl cells (0.2 and 2 μg per injection, three times per week for 3 weeks) was “showed liver metastases but the average number of metastases per animal was reduced”. Also, the “size / growth of the primary tumor (dose reduction study)” value in the assay on L3.6pl cells (three injections per week for 3 weeks, compared to control groups (FIG. 22C)) is reported as “significant decrease of the size of the primary tumor”. For the same sequence, the “macroscopic lung metastases per animal” value with 4T1 cells (20 μg i.p. 3 times per week for two weeks, 5 animals per group) is reported as “three animals showed no macroscopic metastases at all, whereas two animals had only one metastase”. Further, in the assay on 4T1 cells (setting [2]), the primary tumor size result was “significant decrease of tumor size” and the “total number of blood vessels (anti-CD34 staining)” value is on record as “significantly reduced”.
